Reference: patent US20180099931A1 (AbbVie S.à.r.l., priority 2016, published 2018)
Like-named read-outs stand apart in the source and are kept apart here.

Biological target: T1, F508delCFTR (Homo sapiens, UniProt P13569, DEL508-508)
T1 construct: expressed in transfected cells; host or cells: CFBE41o- human lung-derived epithelial cells (CFBE4lo-F508delCFTR-HRP), doxycycline-inducible
Test: Cell Surface Expression-Horse Radish Peroxidase (CSE-HRP) Assay;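 for Maximum % activity (with co-corrector): co-corrector and positive control are both the same reference corrector at 2 µM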;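 for Maximum % activity (without co-corrector): percent of the 2 µM on-plate positive control corrector response above DMSO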
Type: cell-based
Conditions: CSE-HRP; for Maximum % activity (with co-corrector): with co-corrector (2 μM); for Maximum % activity (with co-corrector) / Emax: maximum at any tested concentration, normalized to on-plate positive control; for Emax: without co-corrector, read-out: Maximum % activity (without co-corrector)

[1] = test compound without co-corrector, read-out: EC50 (without co-corrector)
[2] = with co-corrector (2 μM of 3-[(2R,4R)-4-({[1-(2,2-difluoro-1,3-benzodioxol-5-yl)cyclopropyl]carbonyl}amino)-7-methoxy-3,4-dihydro-2H-chromen-2-yl]benzoic acid), read-out: EC50 (with co-corrector)

T1 sequence (P13569 with tags, fused parts or gaps DEL508-508): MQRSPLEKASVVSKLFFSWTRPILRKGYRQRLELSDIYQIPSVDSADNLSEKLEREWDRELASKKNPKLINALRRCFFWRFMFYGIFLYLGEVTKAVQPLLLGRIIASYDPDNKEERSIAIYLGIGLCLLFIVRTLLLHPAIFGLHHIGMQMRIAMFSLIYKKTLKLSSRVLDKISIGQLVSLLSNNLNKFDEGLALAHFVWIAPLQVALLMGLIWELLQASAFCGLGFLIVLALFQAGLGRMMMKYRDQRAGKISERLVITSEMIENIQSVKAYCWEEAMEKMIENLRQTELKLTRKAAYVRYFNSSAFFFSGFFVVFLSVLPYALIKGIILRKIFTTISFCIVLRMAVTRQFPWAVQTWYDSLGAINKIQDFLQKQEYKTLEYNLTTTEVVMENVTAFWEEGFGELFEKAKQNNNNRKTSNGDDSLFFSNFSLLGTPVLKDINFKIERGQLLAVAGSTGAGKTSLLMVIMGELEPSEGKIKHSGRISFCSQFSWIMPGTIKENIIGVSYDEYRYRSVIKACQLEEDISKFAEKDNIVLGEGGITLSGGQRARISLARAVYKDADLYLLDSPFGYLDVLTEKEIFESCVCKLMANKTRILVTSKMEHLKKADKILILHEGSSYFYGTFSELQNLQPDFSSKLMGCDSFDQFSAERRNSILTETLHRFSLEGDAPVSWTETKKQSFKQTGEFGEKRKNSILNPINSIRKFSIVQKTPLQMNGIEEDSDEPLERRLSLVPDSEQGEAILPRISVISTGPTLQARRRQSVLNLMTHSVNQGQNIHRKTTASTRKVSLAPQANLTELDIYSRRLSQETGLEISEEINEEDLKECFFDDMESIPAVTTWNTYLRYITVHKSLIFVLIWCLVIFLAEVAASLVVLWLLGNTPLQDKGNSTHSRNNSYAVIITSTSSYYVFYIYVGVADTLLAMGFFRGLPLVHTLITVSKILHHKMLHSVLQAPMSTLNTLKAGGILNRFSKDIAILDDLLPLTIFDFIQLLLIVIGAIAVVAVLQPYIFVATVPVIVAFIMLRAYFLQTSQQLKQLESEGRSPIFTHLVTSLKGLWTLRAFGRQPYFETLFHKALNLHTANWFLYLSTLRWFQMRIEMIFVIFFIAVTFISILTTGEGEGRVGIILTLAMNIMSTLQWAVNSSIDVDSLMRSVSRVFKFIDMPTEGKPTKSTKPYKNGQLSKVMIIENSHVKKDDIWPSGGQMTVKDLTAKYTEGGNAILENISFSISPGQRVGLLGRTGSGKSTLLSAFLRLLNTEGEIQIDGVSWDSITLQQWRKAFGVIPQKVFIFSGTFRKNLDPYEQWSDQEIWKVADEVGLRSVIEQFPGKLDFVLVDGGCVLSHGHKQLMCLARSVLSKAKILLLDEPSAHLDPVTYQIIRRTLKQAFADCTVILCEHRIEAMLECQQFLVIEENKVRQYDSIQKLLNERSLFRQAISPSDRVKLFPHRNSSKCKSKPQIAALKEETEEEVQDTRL

| Structure (SMILES) | EC50 [1] | EC50 [2] | Maximum % activity (with co-corrector) | Emax |
| --- | --- | --- | --- | --- |
| COc1ccc(C(C)(C)C)cc1CN[C@H]1[C@H](C(C)(C)C)[C@@H](C(=O)O)N(C(=O)Cc2ncc(Cl)cc2F)[C@H]1c1ccccc1 [II-236] | 1000 to 10000 nM | < 1000 nM | +++ (≥350) | > 200% |
| COc1ccc(C(C)(C)C)cc1CN[C@H]1[C@H](C(C)(C)C)[C@@H](C(=O)O)N(C(=O)C2CC(=O)N(C(C)C)C2)[C@H]1c1ccccc1 (stereo partly drawn) [II-238] | 1000 to 10000 nM | 1000 to 10000 nM | +++ (≥350) | 100 to 200% |
| COc1ccc(C(C)(C)C)cc1CN[C@H]1[C@H](C(C)(C)C)[C@@H](C(=O)O)N(C(=O)C2CC(=O)N(C3CC3)C2)[C@H]1c1ccccc1 (stereo partly drawn) [II-239] | 1000 to 10000 nM | 1000 to 10000 nM | +++ (≥350) | 100 to 200% |
| COc1ccc(C(C)(C)C)cc1CN[C@H]1[C@H](C(C)(C)C)[C@@H](C(=O)O)N(C(=O)Cc2cccc(C#N)c2)[C@H]1c1ccccc1 [II-240] | 1000 to 10000 nM | < 1000 nM | +++ (≥350) | > 200% |
| COc1cc(C(F)(F)F)ccc1CN[C@H]1[C@H](C(C)(C)C)[C@@H](C(=O)O)N(C(=O)C2OC[C@@H]3CCC[C@H]23)[C@H]1c1ccccc1 (stereo partly drawn) [II-241] | 1000 to 10000 nM | 1000 to 10000 nM | +++ (≥350) | 100 to 200% |
| COCc1ccc(OC)c(CN[C@H]2[C@H](C(C)(C)C)[C@@H](C(=O)O)N(C(=O)C3CCCCC3)[C@H]2c2ccccc2)c1 [II-242] | 1000 to 10000 nM | 1000 to 10000 nM | +++ (≥350) | 100 to 200% |
| COc1nc2ccccc2cc1CN[C@H]1[C@H](C(C)(C)C)[C@@H](C(=O)O)N(C(=O)C2CCCCC2)[C@H]1c1ccccc1 [II-244] | 1000 to 10000 nM | < 1000 nM | +++ (≥350) | > 200% |
| COc1ccc(-c2ccccc2)cc1CN[C@H]1[C@H](C(C)(C)C)[C@@H](C(=O)O)N(C(=O)C2CCCCC2)[C@H]1c1ccccc1F [II-245] | < 1000 nM | < 1000 nM | +++ (≥350) | 100 to 200% |
| COc1ncc(N2CCCC2)cc1CN[C@H]1[C@H](C(C)(C)C)[C@@H](C(=O)O)N(C(=O)C2CCCCC2)[C@H]1c1ccccc1 [II-246] | 1000 to 10000 nM | 1000 to 10000 nM | +++ (≥350) | 100 to 200% |
| COc1ncc(Br)cc1CN[C@H]1[C@H](C(C)(C)OC)[C@@H](C(=O)O)N(C(=O)C2CCCCC2)[C@H]1c1ccccc1 [II-247] | 1000 to 10000 nM | < 1000 nM | +++ (≥350) | 100 to 200% |
| COc1ccc(-c2ccc(C)cc2)cc1CN[C@H]1[C@H](C(C)(C)C)[C@@H](C(=O)O)N(C(=O)C2CCCCC2)[C@H]1c1ccccc1 [II-249] | < 1000 nM | < 1000 nM | +++ (≥350) | > 200% |
| COc1ccc(-c2cccnc2OC)cc1CN[C@H]1[C@H](C(C)(C)C)[C@@H](C(=O)O)N(C(=O)C2CCCCC2)[C@H]1c1ccccc1 [II-250] | 1000 to 10000 nM | 1000 to 10000 nM | +++ (≥350) | 100 to 200% |
| COc1ncc(C2CC3CCC2C3)cc1CN[C@H]1[C@H](C(C)(C)OC)[C@@H](C(=O)O)N(C(=O)C2CCCCC2)[C@H]1c1ccccc1 (stereo partly drawn) [II-251] | < 1000 nM | < 1000 nM | +++ (≥350) | 100 to 200% |
| COc1ncc(C2CCCCC2)cc1CN[C@H]1[C@H](C(C)(C)OC)[C@@H](C(=O)O)N(C(=O)C2CCCCC2)[C@H]1c1ccccc1 [II-252] | < 1000 nM | < 1000 nM | +++ (≥350) | > 200% |
| COc1ncc(CC2CCCCC2)cc1CN[C@H]1[C@H](C(C)(C)OC)[C@@H](C(=O)O)N(C(=O)C2CCCCC2)[C@H]1c1ccccc1 [II-253] | < 1000 nM | < 1000 nM | +++ (≥350) | 100 to 200% |
| COc1ncc(C(C)C)cc1CN[C@H]1[C@H](C(C)(C)OC)[C@@H](C(=O)O)N(C(=O)C2CCCCC2)[C@H]1c1ccccc1 [II-254] | 1000 to 10000 nM | 1000 to 10000 nM | +++ (≥350) | > 200% |
| COc1ccc(C2CCC2)cc1CN[C@H]1[C@H](C(C)(C)OC)[C@@H](C(=O)O)N(C(=O)C2CCCCC2)[C@H]1c1ccccc1 [II-255] | < 1000 nM | < 1000 nM | +++ (≥350) | > 200% |
| COc1ccc(C2CCCC2)cc1CN[C@H]1[C@H](C(C)(C)OC)[C@@H](C(=O)O)N(C(=O)C2CCCCC2)[C@H]1c1ccccc1 [II-256] | < 1000 nM | < 1000 nM | +++ (≥350) | > 200% |
